For the assay, the target named is FGFR2 (Homo sapiens, UniProt P21802). The experiment in a line: FGFR wild type enzyme assay (HTRF KinEASE-TK), FGFR2. The following applies: Enz FGFR2 (nM).
FGFR2, sequence (P21802 399-821 limits assumed): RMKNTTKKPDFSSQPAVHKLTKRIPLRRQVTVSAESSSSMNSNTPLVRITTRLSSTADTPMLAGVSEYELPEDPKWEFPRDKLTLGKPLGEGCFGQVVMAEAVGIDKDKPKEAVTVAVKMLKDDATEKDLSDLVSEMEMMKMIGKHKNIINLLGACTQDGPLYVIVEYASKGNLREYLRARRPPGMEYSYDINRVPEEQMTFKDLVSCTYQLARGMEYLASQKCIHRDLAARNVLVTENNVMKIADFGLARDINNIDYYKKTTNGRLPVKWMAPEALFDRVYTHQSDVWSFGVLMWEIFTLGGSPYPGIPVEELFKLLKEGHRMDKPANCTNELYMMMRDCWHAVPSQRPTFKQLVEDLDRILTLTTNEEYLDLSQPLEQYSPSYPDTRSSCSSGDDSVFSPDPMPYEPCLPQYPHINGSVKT
Usually IC50 stands for the concentration that gives 50% inhibition. High values mean lower potency, low ones higher potency. Compound `Cc1ccnc(C)c1Sc1cc(-c2cnn([C@H]3CCCNC3)c2)cn2ncc(C#N)c12` [Example 84, 4-[(2,4-dimethyl-3-pyridyl)sulfanyl]-6-[1-[(3S)-3-piperidyl]pyrazol-4-yl]pyrazolo[1,5-a]pyridine-3-carbonitrile] displayed an IC50 of 11 nM.
Next, `Cc1c(-c2cc(SCCOC(C)C)c3c(C#N)cnn3c2)cnn1[C@H]1CCCNC1` [Example 85, 4-(2-isopropoxyethylsulfanyl)-6-[5-methyl-1-[(3S)-3-piperidyl]pyrazol-4-yl]pyrazolo[1,5-a]pyridine-3-carbonitrile]: 7 nM; `Cc1c(-c2cc(Sc3ncccc3F)c3c(C#N)cnn3c2)cnn1[C@H]1CCCNC1` [Example 86, 4-[(3-fluoro-2-pyridyl)sulfanyl]-6-[5-methyl-1-[(3S)-3-piperidyl]pyrazol-4-yl]pyrazolo[1,5-a]pyridine-3-carbonitrile]: 2 nM.
Next, `CCSc1cc(-c2cnn([C@H]3CCCN(C[C@H](O)CO)C3)c2)cn2ncc(C#N)c12` [Example 87, 6-[1-[(3S)-1-[(2S)-2,3-dihydroxypropyl]-3-piperidyl]pyrazol-4-yl]-4-ethylsulfanyl-pyrazolo[1,5-a]pyridine-3-carbonitrile]: 1 nM; `CC(C)Sc1cc(-c2cnn([C@H]3CCCN(C[C@H](O)CO)C3)c2)cn2ncc(C#N)c12` [Example 88, 6-[1-[(3S)-1-[(2S)-2,3-dihydroxypropyl]-3-piperidyl]pyrazol-4-yl]-4-isopropylsulfanyl-pyrazolo[1,5-a]pyridine-3-carbonitrile]: 1 nM.
Consider `CC(C)Sc1cc(-c2cnn([C@H]3CCCN(CCO)C3)c2)cn2ncc(C#N)c12` [Example 89, 6-[1-[(3S)-1-(2-hydroxyethyl)-3-piperidyl]pyrazol-4-yl]-4-isopropylsulfanyl-pyrazolo[1,5-a]pyridine-3-carbonitrile], for which the IC50 was 1 nM.
Next, `N#Cc1cnn2cc(-c3cnn(C4CCN(CCO)CC4)c3)cc(Sc3ccccn3)c12` [Example 90, 6-[1-[1-(2-hydroxyethyl)-4-piperidyl]pyrazol-4-yl]-4-(2-pyridylsulfanyl)pyrazolo[1,5-a]pyridine-3-carbonitrile]: 2 nM; `N#Cc1cnn2cc(-c3cnn([C@H]4CCCN(CCO)C4)c3)cc(Sc3ccccn3)c12` [Example 91, 6-[1-[(3S)-1-(2-hydroxyethyl)-3-piperidyl]pyrazol-4-yl]-4-(2-pyridylsulfanyl)pyrazolo[1,5-a]pyridine-3-carbonitrile]: 2 nM.
In the case of `CC(C)N1CCC(n2cc(-c3cc(Sc4ccccn4)c4c(C#N)cnn4c3)cn2)CC1` [Example 92, 6-[1-(1-isopropyl-4-piperidyl)pyrazol-4-yl]-4-(2-pyridylsulfanyl)pyrazolo[1,5-a]pyridine-3-carbonitrile] it was 3 nM; in that of `CC(=O)N1CCC(n2cc(-c3cc(Sc4ccccn4)c4c(C#N)cnn4c3)cn2)CC1` [Example 93, 6-[1-(1-acetyl-4-piperidyl)pyrazol-4-yl]-4-(2-pyridylsulfanyl)pyrazolo [1,5-a]pyridine-3-carbonitrile], 3 nM.
Compound `CN1CCC[C@H]1C(=O)N1CCC(n2cc(-c3cc(Sc4ccccn4)c4c(C#N)cnn4c3)cn2)CC1` [Example 94, 6-[1-[1-[(2S)-1-methylpyrrolidine-2-carbonyl]-4-piperidyl]pyrazol-4-yl]-4-(2-pyridylsulfanyl) pyrazolo[1,5-a]pyridine-3-carbonitrile] gave an IC50 of 2 nM.
`N#Cc1cnn2cc(-c3ccc(N4CCCC4)nc3)cc(Sc3ccccn3)c12` [Example 95, 4-(2-pyridylsulfanyl)-6-(6-pyrrolidin-1-yl-3-pyridyl)pyrazolo[1,5-a]pyridine-3-carbonitrile]: the IC50 came to 13 nM.
On to `N#Cc1cnn2cc(-c3ccc(OCCN4CCOCC4)nc3)cc(Sc3ccccn3)c12` [Example 96, 6-[6-(2-morpholinoethoxy)-3-pyridyl]-4-(2-pyridylsulfanyl) pyrazolo[1,5-a]pyridine-3-carbonitrile], for which the IC50 amounted to 82 nM.
In the case of `N#Cc1cnn2cc(-c3cnn([C@H]4CCN(CCO)C4)c3)cc(Sc3ccccn3)c12` [Example 97, (S)-6-(1-(1-(2-hydroxyethyl)pyrrolidin-3-yl)-1H-pyrazol-4-yl)-4-(pyridin-2-ylthio)pyrazolo[1,5-a]pyridine-3-carbonitrile] it was 4 nM; in that of `Cc1c(-c2cc(Sc3ccccn3)c3c(C#N)cnn3c2)cnn1C1CCN(C(=O)CO)CC1` [Example 98, 6-(1-(1-(2-hydroxyacetyl)piperidin-4-yl)-5-methyl-1H-pyrazol-4-yl)-4-(pyridin-2-ylthio)pyrazolo[1,5-a]pyridine-3-carbonitrile], 7 nM; in that of `Cc1c(-c2cc(Sc3ccccn3)c3c(C#N)cnn3c2)cnn1C1CCN(C(=O)[C@@H]2CCCN2C)CC1` [Example 99, 6-(5-methyl-1-(1-(methyl-L-prolyl)piperidin-4-yl)-1H-pyrazol-4-yl)-4-(pyridin-2-ylthio)pyrazolo[1,5-a]pyridine-3-carbonitrile], 5 nM.
`Cc1c(-c2cc(Sc3ccccn3)c3c(C#N)cnn3c2)cnn1C1CCN(CCO)CC1` [Example 100, 6-(1-(1-(2-hydroxyethyl)piperidin-4-yl)-5-methyl-1H-pyrazol-4-yl)-4-(pyridin-2-ylthio)pyrazolo[1,5-a]pyridine-3-carbonitrile] returned an IC50 of 5 nM.
`Cc1c(-c2cc(Sc3ncccc3F)c3c(C#N)cnn3c2)cnn1C1CCNCC1` [Example 101, 4-[(3-fluoro-2-pyridyl)sulfanyl]-6-[5-methyl-1-(4-piperidyl)pyrazol-4-yl] pyrazolo[1,5-a]pyridine-3-carbonitrile] had an IC50 of 2 nM.
`Cc1c(-c2cc(Sc3ncccc3F)c3c(C#N)cnn3c2)cnn1[C@@H]1CCCNC1` [Example 102, 4-[(3-fluoro-2-pyridyl)sulfanyl]-6-[5-methyl-1-[(3R)-3-piperidyl]pyrazol-4-yl]pyrazolo[1,5-a]pyridine-3-carbonitrile] returned an IC50 of 6 nM.
In the case of `Cc1c(-c2cc(Sc3ncccc3F)c3c(C#N)cnn3c2)cnn1[C@H]1CCNC1` [Example 103] it was 4 nM; in that of `Cc1c(-c2cc(Sc3ccccc3C#N)c3c(C#N)cnn3c2)cnn1C1CCNCC1` [Example 104], 1 nM; in that of `Cc1c(-c2cc(Sc3ccccc3C#N)c3c(C#N)cnn3c2)cnn1[C@H]1CCCNC1` [Example 105, 4-(2-cyanophenyl)sulfanyl-6-[5-methyl-1-[(3S)-3-piperidyl]pyrazol-4-yl]pyrazolo[1,5-a]pyridine-3-carbonitrile], 1 nM.
Turning to `Cc1c(-c2cc(Sc3ccccc3C#N)c3c(C#N)cnn3c2)cnn1[C@@H]1CCNC1` [Example 106, 4-(2-cyanophenyl) sulfanyl-6-[5-methyl-1-[(3R)-pyrrolidin-3-yl]pyrazol-4-yl]pyrazolo[1,5-a]pyridine-3-carbonitrile], half-maximal inhibition (IC50) was put at 2 nM.
Next, `Cc1c(-c2cc(Sc3ncccc3F)c3c(C#N)cnn3c2)cnn1C1CCN(C)CC1` [Example 107, 4-[(3-fluoro-2-pyridyl)sulfanyl]-6-[5-methyl-1-(1-methyl-4-piperidyl)pyrazol-4-yl]pyrazolo[1,5-a]pyridine3-carbonitrile]: 1 nM.
